For series [1] the following is noted: beagle dogs, cited from earlier work.
The conditions of series [2]: non-polymeric refillable implant, rhesus macaques; cited from earlier work.
Series [3] is described as follows: Evaluation of Elvitegravir for use in the device: solubility and dose. Type of series: physicochemical. An excerpt: (§1) The active agent formulation includes more than one active agent and an excipient. One or more of the more than one active agent can be one or a combination of a therapeutic, a preventative, a prophylactic and/or a contraceptive. […] Not all active agents are amenable for use in the described device. Active agents having sufficient aqueous solubility and stability and dosing requirements and that are amenable to size parameters of the device are suitable for use in the described device. Moreover, in embodiments, the active agents retain a high level of purity that is both safe and efficacious to the user throughout the intended dosage duration and are not susceptible to immediate degradation caused by environmental contents (e.g., body fluids, physiological temperature). In additional embodiments, the solubility of active agents within potential excipients can range from 0.1-50 mg/mL.

In series [4] the test system is HIV. The series is described as follows: Evaluation of Elvitegravir for use in the device: potency.
Excerpt: as §1

These results are taken from US20230165788A1, “MULTI-DRUG FORMULATIONS FOR SUBCUTANEOUS BIODEGRADABLE RESERVOIR DEVICE” (Research Triangle Institute, priority 2020, published 2023).

`CC(C)OC(=O)[C@H](C)N[P@](=O)(CO[C@H](C)Cn1cnc2c(N)ncnc21)Oc1ccccc1` [TAF, tenofovir alafenamide]: the “duration of drug delivery” value in series [1] (subdermal silicone implant with PVA-coated channels) is 40 days. For the same compound, the adverse events entry in series [1] (subdermal silicone implant) is recorded as “without observed adverse events”. Also, in series [2], the “period of sustained levels of tenofovir diphosphate (TFV-DP) in PBMCs” value was 83 days.
As to `Nc1nc(=O)n([C@@H]2CS[C@H](CO)O2)cc1F` [FTC, emtricitabine], the “period of sustained levels of FTC-triphosphate (FTC-TP)” value in series [2] is on record as 28 days.
`COc1cc2c(cc1Cc1cccc(Cl)c1F)c(=O)c(C(=O)O)cn2[C@H](CO)C(C)C` [Elvitegravir]: the solubility result in series [3] was “relatively low solubility”. Moreover, the potency result in series [4] is given as “suboptimal potency”.
